Assay: Plasma stability (UPLC-MS/MS recovery)
Assay type: in vitro ADME
Conditions: 37 °C, rat plasma diluted 1:1 with PBS pH 7.4, read-out: Compound recovery after incubation with rat plasma
Experimental: To investigate the potential plasma instability of the carbamoyl-N-arylimine-urea subunit, designed as a new peptide mimetic framework, compound 10e (LASSBio-1736) was selected to investigate its plasma stability,[21,22] previously to the evaluation of its in vivo leishmanicidal effect. Quantitation of 10e (LASSBio-1736), benzocaine standard (positive control; it means a substrate drug for plasma hydrolysis) and ketoconazole (internal standard) was determined by UPLC-MS/MS, after incubation of the compounds at 0, 30, 60, 120 and 240 min with rat plasma, and measuring the peak areas in three different experiments.
For analysis of plasma stability, 5 μL (250 ng mL^−1) of a concentrated solution of 10e (LASSBio-1736) or the positive control benzocaine (stock concentration = 10 000 ng mL^−1 solubilized in DMSO) was added in 195 μL of rat plasma solution (1 : 1) diluted with PBS (pH 7.4). […] The supernatant (400 μL) were placed in 2 mL vials, and analyzed by UPLC-MS/MS. […]
Detection in single reaction monitoring (SRM) mode was used for determination of the LASSBio-1736 (10e) m/z 419.1 → 205.0, benzocaine m/z 166.1 → 137.9 and ketoconazole (IS) 532.1 → 490.3, with a tolerance of mass deviation of 6 ppm, operating in positive ionization mode. The data were acquired using TraceFinder 3.2. software (Thermo Fisher Scientific, Waltham, USA), and analyzed using GraphPad Prism 5 program.

recovery at 4 h, 250 ng/mL: 38%
Structure (SMILES): CCOC(=O)c1ccc(N)cc1 [benzocaine, reference compound]

From PMC9050848, “Carbamoyl-N-aryl-imine-urea: a new framework to obtain a putative leishmanicidal drug-candidate” (RSC Advances, 2020)
